Among the test systems are UACC-257 melanoma; SNB-19 CNS; A549 NSCLC; HT29 colon; HCC-2998 colon; NCI-H460 lung; NCI-H226 lung; U251 CNS; MDA-MB-435; SNB-75 CNS.
Assay in all cases: inhibition of tumour cell growth, NCI panel, 48 h

Several values for one entry are separate records, joined by “and”; a condition that tells them apart may be missing. Equal entries are not always repeated.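 Assay format: 96-well plates, 48-hour exposure. Here, GI50 denotes the concentration required for 50% inhibition of growth. TGI: concentration producing complete growth inhibition.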

As to `C=CCCCCCCCCCCC1(O)C=CC2=[N+](CCCCCN=C(N)N)CCCN21` (centres undefined), the GI50 with UACC-257 melanoma is 22.7 µM; with SNB-19 CNS, 5.86 µM; with A549 NSCLC it was 5.06 µM; with HT29 colon, 3.87 µM; in the assay with HCC-2998 colon it was 2.66 µM; in the assay on NCI-H460 lung, 4.38 µM. Further, the GI50 was 3.86 µM in the assay on NCI-H226 lung, 1.49 µM in the assay on U251 CNS, 12.3 µM in the assay on MDA-MB-435 and 8.62 µM in the assay on SNB-75 CNS. Moreover, the TGI with UACC-257 melanoma was > 55.7 µM; in the assay on SNB-19 CNS it was 30.4 µM; in the assay on A549 NSCLC it was 24.6 µM; in the assay with HT29 colon it was 22.7 µM; with HCC-2998 colon, 24.6 µM; in the assay with NCI-H460 lung, 19.9 µM. Further, the TGI with NCI-H226 lung is 21 µM; in the assay on U251 CNS, 13.9 µM; in the assay with MDA-MB-435, 31.1 µM; in the assay with SNB-75 CNS, 25.9 µM.

In the case of `CC1(C)OCCn2c1nc1c(N3CCOCC3)nc(-c3cnc(N)nc3)nc12`, the GI50 in the assay on UACC-257 melanoma is 0.197 µM; in the assay on SNB-19 CNS, 1.01 µM; in the assay on A549 NSCLC, 0.283 µM; in the assay with HT29 colon, 0.23 µM; in the assay with HCC-2998 colon it was 0.412 µM; in the assay with NCI-H460 lung it was 0.187 µM. Also, the GI50 with NCI-H226 lung was 0.227 µM; in the assay with U251 CNS, 0.673 µM; in the assay with MDA-MB-435, 0.27 µM; in the assay with SNB-75 CNS, 0.0563 µM. Also, the TGI in the assay with UACC-257 melanoma is 1.97 µM; in the assay with SNB-19 CNS, > 30.2 µM; in the assay on A549 NSCLC it was 4.4 µM; in the assay on HT29 colon it was > 100 µM; in the assay with HCC-2998 colon it was > 100 µM; in the assay on NCI-H460 lung it was > 100 µM. Moreover, the TGI amounted to 8.75 µM in the assay on NCI-H226 lung, 34 µM in the assay on U251 CNS and 0.817 µM with SNB-75 CNS.

Consider `Nc1c(C(=O)Nc2cccc(Br)c2)sc2nc3c(cc12)C(=O)CCC3`, for which the GI50 was > 100 µM in the assay on UACC-257 melanoma; 7.34 µM with SNB-19 CNS; 0.5 µM in the assay on A549 NSCLC; 0.37 µM in the assay with HT29 colon; 1.46 µM in the assay with HCC-2998 colon; 0.373 µM in the assay on NCI-H460 lung. Also, the GI50 with NCI-H226 lung was 16.8 µM; in the assay on U251 CNS, 0.517 µM; in the assay with MDA-MB-435, 0.0915 µM; with SNB-75 CNS, 0.486 µM. Also, the TGI in the assay with UACC-257 melanoma is > 100 µM; with SNB-19 CNS, > 100 µM; with A549 NSCLC it was > 100 µM; in the assay on HT29 colon, > 100 µM; in the assay with HCC-2998 colon, > 53.2 µM; with NCI-H460 lung, > 100 µM. Besides, the TGI in the assay with NCI-H226 lung was > 100 µM; with U251 CNS, > 100 µM; with MDA-MB-435, 0.348 µM; with SNB-75 CNS, > 52.2 µM.

`Oc1cc(O)c2c(c1)OC(c1ccc(O)c(O)c1)C(OC1(c3cc(O)c(O)c(O)c3)Oc3cc(O)cc(O)c3C(O)C1O)C2` (centres undefined): the TGI in the assay on UACC-257 melanoma was > 100 µM; in the assay on SNB-19 CNS, > 100 µM; in the assay with A549 NSCLC it was > 71.7 µM; with HT29 colon, 41 µM; in the assay on HCC-2998 colon, > 100 µM; with NCI-H460 lung, 36.8 µM. Moreover, the TGI is 50.9 µM with NCI-H226 lung, 46.2 µM in the assay with U251 CNS, 37.6 µM in the assay on MDA-MB-435 and 60.8 µM in the assay with SNB-75 CNS.

`CC(=O)c1cc2c(o1)C(=O)c1ccccc1C2=O`: the GI50 in the assay on UACC-257 melanoma is 0.191 µM and 0.197 µM; in the assay on SNB-19 CNS, 0.222 µM and 0.267 µM; in the assay on A549 NSCLC, 0.217 µM and 0.208 µM; in the assay on HT29 colon, 0.226 µM and 0.276 µM; in the assay with HCC-2998 colon, 0.46 µM and 0.261 µM; in the assay with NCI-H460 lung it was 0.21 µM and 0.194 µM. The GI50 with NCI-H226 lung was 0.226 µM and 0.212 µM; in the assay with U251 CNS, 0.197 µM and 0.256 µM; with MDA-MB-435 it was 0.089 µM and 0.181 µM; in the assay on SNB-75 CNS, 0.181 µM and 0.195 µM. Moreover, the TGI was 0.37 µM and 0.451 µM in the assay with UACC-257 melanoma; 0.508 µM and 0.795 µM in the assay with SNB-19 CNS; 0.453 µM and 0.434 µM with A549 NSCLC; 0.529 µM and 0.756 µM in the assay on HT29 colon; 0.993 µM and 0.689 µM in the assay with HCC-2998 colon; 0.422 µM and 0.375 µM with NCI-H460 lung. For the same compound, the TGI in the assay on NCI-H226 lung was 0.5 µM and 0.472 µM; in the assay with U251 CNS it was 0.378 µM and 0.682 µM; in the assay on MDA-MB-435, 0.238 µM and 0.33 µM; with SNB-75 CNS it was 0.328 µM and 0.376 µM.

With `Cc1ccc(-c2nc3ccc([N+](=O)[O-])cc3[nH]2)cc1`, the TGI in the assay with UACC-257 melanoma, with SNB-19 CNS, in the assay with A549 NSCLC, in the assay with HT29 colon, in the assay on HCC-2998 colon and in the assay on NCI-H460 lung was > 100 µM each time. Besides, the TGI in the assay with NCI-H226 lung, in the assay with U251 CNS, in the assay with MDA-MB-435 and in the assay with SNB-75 CNS was > 100 µM each time.

In the case of `Cc1ccc(Cl)cc1Nc1nc(C(F)(F)F)ccc1C(=O)N1CCN(c2cccc(Cl)c2)CC1`, the GI50 was > 100 µM in the assay on UACC-257 melanoma; > 100 µM with SNB-19 CNS; > 100 µM in the assay on A549 NSCLC; > 100 µM with HT29 colon; 17.8 µM with HCC-2998 colon; 90.1 µM in the assay with NCI-H460 lung. The GI50 is > 100 µM with NCI-H226 lung, > 100 µM in the assay on U251 CNS, > 100 µM in the assay with MDA-MB-435 and 73.8 µM in the assay on SNB-75 CNS. Moreover, the TGI with UACC-257 melanoma, with SNB-19 CNS, in the assay with A549 NSCLC, with HT29 colon, in the assay on HCC-2998 colon and in the assay on NCI-H460 lung was > 100 µM in each case. Further, the TGI with NCI-H226 lung, in the assay on U251 CNS, in the assay on MDA-MB-435 and in the assay with SNB-75 CNS was > 100 µM in each case.

In the case of `Cn1cnc([N+](=O)[O-])c1S(=O)(=O)Oc1ccccc1`, the GI50 was 3.84 µM in the assay on UACC-257 melanoma; > 100 µM in the assay on SNB-19 CNS; 38.1 µM in the assay with A549 NSCLC; 3.14 µM in the assay on HT29 colon; 19.3 µM in the assay with HCC-2998 colon; 23.9 µM with NCI-H460 lung. Also, the GI50 in the assay with NCI-H226 lung was 19.8 µM; with U251 CNS, 23.5 µM; with MDA-MB-435, 9.84 µM; in the assay with SNB-75 CNS it was 14.9 µM. Further, the TGI with UACC-257 melanoma is 16.3 µM; with SNB-19 CNS, > 100 µM; in the assay on A549 NSCLC, > 100 µM; in the assay with HT29 colon, 8.21 µM; in the assay on HCC-2998 colon it was 40.7 µM; in the assay with NCI-H460 lung, > 72.8 µM. The TGI was 60 µM in the assay with NCI-H226 lung, > 66.3 µM with U251 CNS, 31.9 µM in the assay on MDA-MB-435 and 34.9 µM in the assay on SNB-75 CNS.

Regarding `N#Cc1c(-c2ccc(F)cc2)c(-c2ccc(F)cc2)nn(CCO)c1=O`, the TGI in the assay with UACC-257 melanoma is > 100 µM; in the assay on SNB-19 CNS, > 100 µM; in the assay with A549 NSCLC, > 100 µM; in the assay on HT29 colon, > 22.9 µM; in the assay on HCC-2998 colon it was 28.4 µM; in the assay on NCI-H460 lung it was > 25.1 µM. Also, the TGI with NCI-H226 lung is > 4.64 µM; with U251 CNS it was > 100 µM; in the assay with MDA-MB-435 it was 0.608 µM; in the assay on SNB-75 CNS, 16.9 µM.

The record behind these values is PubChem BioAssay (NCI).
